Each structure is given as a SMILES string.

Results on six molecules are retold here after article PMC11767451, “Novel Approaches to Monitor Pharmacokinetics and Metabolism of Gemcitabine-Ibandronate Conjugate in Mice and Dogs” (Molecules, 2025).

The nature of data set [1]: Proof-of-concept dog PK study, plasma levels of GEM-IB and metabolites by HPLC-MS/MS. It is filed as in vivo, beagle dogs. The conditions noted are these: for half-life: dog, plasma, 5 mg/kg; for Cmax: analyte = parent or metabolite; for AUC: over the observation period. As to the method:
(§1) Assay A (GEM-IB and IB): The extraction of calibration standards, quality control samples, and PK study samples was identical. Plasma, quality control stocks, and calibrator stocks were removed from the storage freezer and kept at room temperature until fully thawed. Aliquots of 100 μL of standards/quality control or blank sample were transferred into a 1.5 mL low-binding polypropylene vial with a conical bottom and snap-on lid. An amount of 10 µL of the of the internal standard solution (15 and 10 µg/mL of IB-D3 and ATP-IS, respectively) was added and mixed. For protein precipitation, 50 μL of methanol was added and then samples were vortexed for 10 min. This was followed by centrifugation at 25,000× g for ten minutes at 4 °C (Thermo Scientific MR 23i Centrifuge, Thermo Scientific, Waltham, MA, USA). To remove remaining protein, the supernatant was transferred to 10,000 molecular weight cut off (MWCO) centrifugal filters (800 µL volume, PES 10,000 with 2.0 mL receiver tubes, Analytical Sales and Services, Flanders, NJ, USA) and centrifuged again at 25,000× g for ten minutes at 4 °C. The filtrate was transferred into HPLC vials and placed into the HPLC autosampler maintained at 4 °C.
(§2) Assay B (GEMMP, GEM dFdUMP and dFdU): The extraction of calibration standards and quality control samples was identical to that of study samples. An amount of 200 µL of plasma sample was added to a 1.5 mL snap-top Eppendorf tube with 100 µL of protein precipitation solution. The samples were then vortexed for five minutes followed by centrifugation at 25,000× g for ten minutes at 4 °C. Hereafter, supernatants were transferred to 10K Amicon centrifugal filters (Merck-Millipore, Burlington, MA, USA) and centrifuged at the same settings for 60 min. The filtrates were then transferred into HPLC vials for analysis.
(§3) Assay A (GEM-IB and IB): Quantification of the analytes was carried out using high-performance liquid chromatography–tandem mass spectrometry (HPLC-MS/MS). Chromatography was performed using an Agilent 1260 Infinity II bio-inert HPLC system (Agilent Technologies, Santa Clara, CA, USA) on a Hypercarb Porous Graphitic Carbon HPLC column (3 µm, 2.1 × 50 mm, Thermo Scientific, Waltham, MA, USA). The HPLC system consisted of an Agilent 1260 Infinity II bio-inert quaternary pump, an Agilent 1260 Infinity II bio-inert column oven, and an Agilent 1260 Infinity II bio-inert autosampler (Agilent Technologies, Santa Clara, CA, USA). An amount of 10 µL of the sample extracts was injected. The column was maintained at 22 °C. HPLC-MS-grade water supplemented with 10 mM hexafluoroisopropanol (HFIP) and 0.05% (v/v) diethyl amine (DEA) at pH 9.4 was used for the aqueous mobile phase (Buffer A) and HPLC-grade acetonitrile was used for the organic mobile phase (Buffer B). The flow rate was set to 400 µL/min throughout the assay. The initial settings were 98% Buffer A and 2% organic Buffer B for the first two minutes. During the following 0.7 min, the organic Buffer B was increased to 30%. At minute 3.5, the gradient reached 98% Buffer B, which was kept for 0.5 min, and at minute 4.2 the column was re-equilibrated to starting conditions for 2.8 min until the next injection. The HPLC system was connected to a Sciex a 5500+ triple quadrupole mass spectrometer (SCIEX, Concord, ON, Canada) via a turbo electrospray ionization source (SCIEX) operated in the negative electrospray ionization (ESI) mode. Data were acquired in negative multiple reaction monitoring (MRM) mode and all compounds were detected as [M–H ]^−. The ion transitions used during the multiple reaction monitoring mode were m/z = 318→236, 321→239, 643→342, and 521→79 for IB, IB-D3, GEM-IB, and adenosine-^13C10,^15N5 5′-triphosphate (^13C10-^15N5-ATP), respectively. The dwell time for analysis was set to 50 ms. The curtain gas was kept at 20 psi and the ion source gas at 55 psi. The ion spray voltage was −4500 volts, and the temperature of the ion source was set to 400 °C. […]

Data set [2] can be described thus: Proof-of-concept mouse PK study, plasma levels of GEM-IB and metabolites by HPLC-MS/MS. It is filed as in vivo, mice. The conditions noted are these: for Cmax: analyte = parent or metabolite; for AUC: over the observation period. The procedure: as §1, §2, §3
Where [3] appears, read: after GEM-IB 5 mg/kg 30 min i.v. infusion.
Where [4] appears, read: beagle, iv, after GEM-IB 5 mg/kg 30 min i.v. infusion, read-out: T1/2 (converted).
[5] abbreviates: beagle, iv, after GEM-IB 5 mg/kg 30 min i.v. infusion.
Setting [6] is: beagle, iv, after the end of the 30 min i.v. infusion of GEM-IB 5 mg/kg, read-out: half-life.
The mark [7] stands for this setting: ip, after GEM-IB 5 mg/kg i.p., read-out: Tmax.
The mark [8] stands for this setting: mouse, plasma, ip, 5 mg/kg, after GEM-IB 5 mg/kg i.p., read-out: AUC.
[9] abbreviates: mouse, plasma, ip, 5 mg/kg, after GEM-IB 5 mg/kg i.p., read-out: T1/2 (converted).
The mark [10] stands for this setting: mouse, plasma, ip, 5 mg/kg, after i.p. injection of GEM-IB 5 mg/kg, read-out: half-life.

As for `Nc1ccn([C@@H]2O[C@H](CO)[C@@H](O)C2(F)F)c(=O)n1` [GEM, gemcitabine], the “Rate Constant” value in data set [1] (setting [3]) is 0.5 h⁻¹. The half-life in data set [1] (setting [4]) was 90.7 min. Moreover, in data set [1] (setting [5]), the time of peak concentration (Tmax) (usually the time from dosing to the highest level) stood at 30 min; the Cmax (commonly the peak of the concentration-time curve) turned out to be 684 ng/mL; the AUC (as a rule, concentration integrated over time) was 1620 ng·h/mL. In addition, in data set [2] (after GEM-IB 5 mg/kg i.p.), the “Rate Constant” value was determined as 1.5 h⁻¹, the T1/2 was found to be 26.9 min and the Tmax came to 4.98 min. The Cmax in data set [2] (ip, after GEM-IB 5 mg/kg i.p.) came to 2120 ng/mL.
Take `CCCCCN(C)CCC(O)(P(=O)(O)O)P(=O)(O)OP(=O)(O)OC[C@H]1O[C@@H](n2ccc(N)nc2=O)C(F)(F)[C@@H]1O` (stereo partly drawn) [GEM-IB]: the “Rate Constant” value in data set [1] (setting [3]) worked out at 50.6 h⁻¹; in data set [2] (after GEM-IB 5 mg/kg i.p.) it was 5.0 h⁻¹. The half-life in data set [1] (setting [4]) is 0.84 min; in data set [1] (setting [6]) it was below 1 min; in data set [2] (setting [9]), 8.28 min; in data set [2] (setting [10]), 8 min. Moreover, the values for the Tmax in data set [1] (setting [5]) and in data set [2] (setting [7]) were 30 min and 4.98 min, respectively. Besides, the clearance – broadly, the volume of plasma or blood freed of the substance per unit of time – in data set [1] (setting [5]) is 284 mL/min/kg. Besides, the Cmax in data set [1] (setting [5]) amounted to 795 ng/mL; in data set [2] (ip, after GEM-IB 5 mg/kg i.p.), 4180 ng/mL. The AUC in data set [1] (setting [5]) was 295 ng·h/mL; in data set [2] (setting [8]) it was 1280 ng·h/mL. In addition, in data set [1] (beagle, iv, after GEM-IB 5 mg/kg 30 min i.v. infusion, read-out: Vdss), the Vd is 1.93 L/kg. The CL in data set [2] (after GEM-IB 5 mg/kg i.p.) was found to be 65.65 mL/min/kg. Also, in data set [2] (after GEM-IB 5 mg/kg i.p.), the Vdss turned out to be 0.469 L/kg.
For the molecule `Nc1ccn([C@@H]2O[C@H](COP(=O)(O)O)[C@@H](O)C2(F)F)c(=O)n1` [GEMMP, gemcitabine-5′-phosphate], the “plasma values after the infusion period” value in data set [1] (setting [3]) is “below the LLOQ”. In addition, the Tmax turned out to be 30 min in data set [1] (setting [5]) and 4.98 min in data set [2] (setting [7]). Moreover, the Cmax in data set [1] (setting [5]) was determined as 224 ng/mL; in data set [2] (ip, after GEM-IB 5 mg/kg i.p.) it was 1310 ng/mL. The AUC in data set [1] (setting [5]) was 83 ng·h/mL; in data set [2] (setting [8]), 405 ng·h/mL. Moreover, the “Rate Constant” value in data set [2] (after GEM-IB 5 mg/kg i.p.) worked out at 4.0 h⁻¹. In addition, the half-life in data set [2] (setting [9]) is 10.3 min.
For `CCCCCN(C)CCC(O)(P(=O)(O)O)P(=O)(O)O` [IB, ibandronate], the figures for the “Rate Constant” value in data set [1] (setting [3]) and in data set [2] (after GEM-IB 5 mg/kg i.p.) were 0.7 h⁻¹ and 2.6 h⁻¹, respectively. The half-life in data set [1] (setting [4]) is 55.9 min; in data set [1] (setting [6]), 55 min; in data set [2] (setting [9]) it was 16.1 min; in data set [2] (setting [10]), 16 min. Moreover, the figures for the Tmax in data set [1] (setting [5]) and in data set [2] (setting [7]) were 30 min and 4.98 min, respectively. For the same molecule, the Cmax in data set [1] (setting [5]) is 4740 ng/mL; in data set [2] (ip, after GEM-IB 5 mg/kg i.p.) it was 22800 ng/mL. The values for the AUC in data set [1] (setting [5]) and in data set [2] (setting [8]) were 5720 ng·h/mL and 10700 ng·h/mL, respectively.
Take `O=c1ccn([C@@H]2O[C@H](CO)[C@@H](O)C2(F)F)c(=O)[nH]1` [dFdU, 2′,2′-difluoro-2′-deoxyuridine]: the “Rate Constant” value worked out at 0.1 h⁻¹ in data set [1] (setting [3]) and 0.4 h⁻¹ in data set [2] (after GEM-IB 5 mg/kg i.p.). In addition, the values for the half-life in data set [1] (setting [4]) and in data set [2] (setting [9]) were 591 min and 108 min, respectively. Besides, the Tmax stood at 270 min in data set [1] (setting [5]) and 60 min in data set [2] (setting [7]). The Cmax came to 330 ng/mL in data set [1] (setting [5]) and 832 ng/mL in data set [2] (ip, after GEM-IB 5 mg/kg i.p.). In addition, in data set [1] (setting [5]), the AUC was 6570 ng·h/mL.
On to `O=c1ccn([C@@H]2O[C@H](COP(=O)(O)O)[C@@H](O)C2(F)F)c(=O)[nH]1` [dFdUMP, 2′,2′-difluoro-2′-deoxyuridine-5′-phosphate], for which the “Rate Constant” value in data set [1] (setting [3]) came out at 7.0 h⁻¹; in data set [2] (after GEM-IB 5 mg/kg i.p.) it was 11.1 h⁻¹. Besides, the half-life is 5.94 min in data set [1] (setting [4]) and 3.78 min in data set [2] (setting [9]). Moreover, the Tmax in data set [1] (setting [5]) was 30 min; in data set [2] (setting [7]), 4.98 min. Moreover, the Cmax came out at 23 ng/mL in data set [1] (setting [5]) and 130 ng/mL in data set [2] (ip, after GEM-IB 5 mg/kg i.p.). Further, the AUC was 11 ng·h/mL in data set [1] (setting [5]); 38 ng·h/mL in data set [2] (after GEM-IB 5 mg/kg i.p.); 3389 ng·h/mL in data set [2] (after GEM-IB 5 mg/kg i.p., listed as dFdU-MP).
